This passage reports IC50 results from patent publication US20240076297A1, “ADENOSINE A2A AND A2B RECEPTOR DUAL ANTAGONISTS FOR IMMUNO-ONCOLOGY” (Merck Sharp & Dohme LLC, priority 2020, published 2024).

The structures appear in SMILES notation.

human A2A adenosine receptor, sequence (P29274 whole entry): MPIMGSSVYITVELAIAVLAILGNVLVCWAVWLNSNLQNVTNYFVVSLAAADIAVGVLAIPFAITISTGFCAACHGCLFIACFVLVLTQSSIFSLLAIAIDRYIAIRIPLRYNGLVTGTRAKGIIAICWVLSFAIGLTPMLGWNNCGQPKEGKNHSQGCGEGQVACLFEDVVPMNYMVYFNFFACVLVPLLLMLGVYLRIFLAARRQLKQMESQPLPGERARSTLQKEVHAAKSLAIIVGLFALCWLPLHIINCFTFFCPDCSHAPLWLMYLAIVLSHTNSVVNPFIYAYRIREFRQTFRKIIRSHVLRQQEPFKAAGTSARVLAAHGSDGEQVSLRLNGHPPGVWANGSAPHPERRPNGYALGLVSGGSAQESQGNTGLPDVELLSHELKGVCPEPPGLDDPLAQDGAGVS

The target of this test is human A2A adenosine receptor (Homo sapiens (Human), UniProt P29274). The test is described as follows: A2A binding affinity using radioligand binding, Method (A). As to conditions: Method (A): filtration radioligand binding, [3H] SCH58261, membranes expressing human A2A. The text has this:
Method (A) describes the procedure used to measure A2A binding affinity using radioligand binding. Method (B) describes the procedure used to measure A2A binding affinity using SPA technology. The method used to measure A2B binding affinity is also described below. The method used to determine the A2A IC50 value reported for each compound in the table is indicated next to the reported value. The A2B IC50 value measured using the A2B binding affinity assay is shown in the table next to the compound under the corresponding A2A value.
The A2A receptor affinity binding assay measured the amount of binding of a tritiated ligand with high affinity for the A2A adenosine receptor to membranes made from HEK293 or CHO cells recombinantly expressing the human A2A adenosine receptor, in the presence of varying concentrations of a compound of the invention. The data were generated using either filtration binding or a homogenous scintillation proximity assay (SPA).
Method (A): Measurement of A2A Binding Affinity Using Radioligand Binding
148 μL (5 μg/mL) membranes (Perkin Elmer, Cat. No. RBHA2aM400UA) and 2 μL compounds of the invention to be tested (test compound) were transferred to individual wells of a 96-well polypropylene assay plate and incubated for 15 to 30 min at room temperature. [^3H] SCH58261 ((7-(2-phenylethyl)-5-amino-2-(2-furyl)-pyrazolo-[4,3-e]-1,2,4-triazolo[1,5-c]pyrimidine)) was diluted in assay buffer (50 mM Tris pH 7.4, 10 mM MgCl2, 0.005% Tween20) to a concentration of 4 nM and 50 μL transferred to each well of the assay plate. To define total and non-specific binding, wells containing 1% DMSO and 1 μM ZM241385 (Tocris Bioscience, Cat. No. 1036) respectively, were also included. The assay plate was incubated at room temperature for 60 min with agitation. Using a FilterMate Harvester® (Perkin Elmer), the contents of the assay plate were filtered through a UniFilter-96® PEI coated plate (Perkin Elmer Cat. No. 6005274 or 6005277). Filtering was achieved by aspirating the contents of the assay plate for 5 sec, then washing and aspirating the contents three times with ice-cooled wash buffer (50 mM Tris-HCl pH 7.4, 150 mM NaCl) and allowing the vacuum manifold to dry the plate for 30 sec. The filter plate was incubated for at least 1 h at 55° C. and allowed to dry. The bottom of the filter plate was sealed with backing tape. 40 μL Ultima Gold™ (Perkin Elmer, Cat. No. 6013329) was added to each well of the filter plate and the top of the plate was sealed with TopSeal-A PLUS® clear plate seal (Perkin Elmer, Cat. No. 6050185). The plate was incubated for at least 20 min, and then the amount of radioactivity remaining in each well was determined using a TopCount® (Perkin Elmer) scintillation counter. After normalization to total and non-specific binding, the percent effect at each compound concentration was calculated. The plot of percent effect versus the log of compound concentration was analyzed electronically using a 4-parameter logistic fit based on the Levenberg-Marquardt algorithm to generate IC50 values.
Broadly, the IC50 is the concentration that inhibits the measured activity by half. Turning to `COc1cccc2c1nc(N)n1nc(COC3CCc4c(nnn4C4CC(F)(F)C4)C3)nc21` (single isomer, unassigned) [Example 2.2A, (S or R)-2-(((1-(3,3-difluorocyclobutyl)-4,5,6,7-tetrahydro-1H-benzo[d][1,2,3]triazol-5-yl)oxy)methyl)-7-methoxy-[1,2,4]triazolo[1,5-c]quinazolin-5-amine], the IC50 came out at 3.4 nM.

Regarding `COc1cccc2c1nc(N)n1nc(COC3CCc4c(nnn4C4CC(F)(F)C4)C3)nc21` (single isomer, unassigned) [Example 2.2B, (R or S)-2-(((1-(3,3-difluorocyclobutyl)-4,5,6,7-tetrahydro-1H-benzo[d][1,2,3]triazol-5-yl)oxy)methyl)-7-methoxy-[1,2,4]triazolo[1,5-c]quinazolin-5-amine], the 50% inhibitory concentration (IC50) is 0.6 nM.

In the case of `COc1cccc2c1nc(N)n1nc(CCC3CCc4c(nnn4C(C)C)C3)nc21` (single isomer, unassigned) [Example 5.2A, (S or R)-2-(2-(1-isopropyl-4,5,6,7-tetrahydro-1H-benzo[d][1,2,3]triazol-5-yl)ethyl)-7-methoxy-[1,2,4]triazolo[1,5-c]quinazolin-5-amine], the half-maximal inhibitory concentration (IC50) was found to be 0.7 nM.

For the compound `COc1cccc2c1nc(N)n1nc(CCC3CCc4c(nnn4C4CC(F)(F)C4)C3)nc21` (single isomer, unassigned) [Example 5.3A, (S or R)-2-(2-(1-(3,3-difluorocyclobutyl)-4,5,6,7-tetrahydro-1H-benzo[d][1,2,3]triazol-5-yl)ethyl)-7-methoxy-[1,2,4]triazolo-[1,5-c]quinazolin-5-amine], the 50% inhibitory concentration (IC50) is 0.9 nM.

In turn, `COc1cc(F)cc2c1nc(N)n1nc(CCC3CCc4nn(C(C)C)cc4C3)nc21` (single isomer, unassigned) [Example 5.4B, (R or S)-9-fluoro-2-(2-(2-isopropyl-4,5,6,7-tetrahydro-2H-indazol-5-yl)ethyl)-7-methoxy-[1,2,4]triazolo[1,5-c]quinazolin-5-amine] gave an IC50 of 5.5 nM.

With `COc1cccc2c1nc(N)n1nc(CCC3CCc4nn(C(C)C)cc4C3)nc21` (single isomer, unassigned) [Example 7.2A, (S or R)-2-(2-(2-isopropyl-4,5,6,7-tetrahydro-2H-indazol-5-yl)ethyl)-7-methoxy-[1,2,4]triazolo[1,5-c]quinazolin-5-amine], the half-inhibitory concentration (IC50) came to 2.5 nM.

The compound `COc1cccc2c1nc(N)n1nc(CCC3CCc4nn(C(C)C)cc4C3)nc21` (single isomer, unassigned) [Example 7.2B, (R or S)-2-(2-(2-isopropyl-4,5,6,7-tetrahydro-2H-indazol-5-yl)ethyl)-7-methoxy-[1,2,4]triazolo[1,5-c]quinazolin-5-amine] came in with an IC50 of 2.3 nM.

With `COc1cc(F)cc2c1nc(N)n1nc(CCC3CCn4c(cnc4C4CC(F)(F)C4)C3)nc21` (single isomer, unassigned) [Example 7.3A, (S or R)-2-(2-(3-(3,3-difluorocyclobutyl)-5,6,7,8-tetrahydroimidazo-[1,5-a]pyridin-7-yl)ethyl)-9-fluoro-7-methoxy-[1,2,4]triazolo[1,5-c]-quinazolin-5-amine], the IC50 was 2.8 nM.

The compound `COc1cc(F)cc2c1nc(N)n1nc(CCC3CCn4c(cnc4C4CC(F)(F)C4)C3)nc21` (single isomer, unassigned) [Example 7.3B, (R or S)-2-(2-(3-(3,3-difluorocyclobutyl)-5,6,7,8-tetrahydroimidazo-[1,5-a]pyridin-7-yl)ethyl)-9-fluoro-7-methoxy-[1,2,4]triazolo[1,5-c]-quinazolin-5-amine] had a half-inhibitory concentration (IC50) of 4.6 nM.

In the case of `Nc1nc2c(F)cc(F)cc2c2nc(CCC3CCn4c(cnc4C4CC(F)(F)C4)C3)nn12` (single isomer, unassigned) [Example 7.4A, (S or R)-2-(2-(3-(3,3-difluorocyclobutyl)-5,6,7,8-tetrahydroimidazo-[1,5-a]pyridin-7-yl)ethyl)-7,9-difluoro-[1,2,4]triazolo[1,5-c]-quinazolin-5-amine], the IC50 came out at 31.6 nM.
